Reference: patent US20070231407A1, “Method of treating gallium-nitrate resistant tumors using gallium-containing compounds” (priority 2006, published 2007)

Key:
CCRF-CEM cells = test: MTT cell growth assay, CCRF-CEM cells (GaN-sensitive); assay type: cell-based, human; details: for IC50: MTT assay, 72 h incubation, read-out: IC50, inhibition of T lymphoma CCRF-CEM cell growth; for Inhibition of CCRF-CEM cell growth (in words): increasing concentrations, 72 h, MTT, FIG. 2
Procedure: CCRF-CEM cells were obtained from ATCC.
(§1) Mantle cell lymphoma (HBL-2 (Human B-cell lymphoma-derived cell line), Granta, JVM-2, NCEB-1, Z138C) and DoHH2 cell lines were obtained from the British Columbia Cancer Agency. p53 cell lines were obtained from the NCI. Gallium maltolate and gallium nitrate were obtained from Titan Pharmaceuticals Inc. (San Francisco, Calif.) and Genta Incorporated (Berkley Heights, N.J.), respectively. Cell proliferation was measured by MTT assay (Mosmann T. “Rapid colorimetric assay for cellular growth and survival: Application to proliferation and cytotoxicity assays”. J Immunol Methods 1983; 65:55-63, incorporated by reference here in its entirety). Caspase-3 activity was measured by ApoOne assay (Promega, Madison, Wis.). Assays for cellular ^59Fe-transferrin uptake and ^125I-transferrin binding were used as previously described in Chitambar, 1997.
(§2) CCRF-CEM cells were plated at a density of 2×10^5 cells/ml in microwell plates (100 μL cell suspension per well) in the presence of increasing concentrations of gallium maltolate or maltol (subsequently referred to as the additives). After 72 h of incubation, 10 μL MTT (3-(4,5-dimethlythiazol-2-yl)-2,5-diphenyltetrazolium bromide) was added to each well and the incubation continued for 4 h at 37° C. Cells were then solubilized by the addition of 100 μL of 0.4 N HCl in isopropanol to each well and the absorbance of each well was read at 570 nm using a microplate reader. The effect of the additives on cell proliferation was determined by comparing the absorbance from wells containing the additives with the absorbance from wells in which the additives were omitted (decreased absorbance signifies decreased cell proliferation). Cell growth was expressed as a percentage of control (cell growth in the absence of additives). Cell proliferation was assessed after 72 h of incubation with gallium maltolate or maltol.
Cell growth was determined by MTT assay as described in Example 1 above. Values shown are means +/−S.E. (n=4).
To determine the effect of GaM on the growth of gallium nitrate-resistant (GnR) and -sensitive (GnS) cells, cells were plated in microwell plates and incubated with GaM. Cellular proliferation was measured by MTT assay after 72 h incubation with GaM. Values shown are means +/−S.E. (n=4).

[1] = system: GaN-resistant CCRF-CEM cells; test: MTT cell growth assay, gallium nitrate-resistant (GnR) CCRF-CEM cells; assay type: cell-based, human
Procedure: (§3) Mantle cell lymphoma (HBL-2 (Human B-cell lymphoma-derived cell line), Granta, JVM-2, NCEB-1, Z138C) and DoHH2 cell lines were obtained from the British Columbia Cancer Agency. p53 cell lines were obtained from the NCI. […] Cell proliferation was measured by MTT assay (Mosmann T. “Rapid colorimetric assay for cellular growth and survival: Application to proliferation and cytotoxicity assays”. J Immunol Methods 1983; 65:55-63, incorporated by reference here in its entirety). Caspase-3 activity was measured by ApoOne assay (Promega, Madison, Wis.). Assays for cellular ^59Fe-transferrin uptake and ^125I-transferrin binding were used as previously described in Chitambar, 1997.
as §2, with “After 72 h of incubation, 10 μL MTT (3-(4,5-dimethlythiazol-2-yl)-2,5-diphenyltetrazolium bromide) was added to each well and the incubation continued for 4 h at 37° C.” left out, “Cell growth was expressed as a percentage of control (cell growth in the absence of additives). Cell proliferation was assessed after 72 h of incubation with gallium maltolate or maltol.” left out

[2] = system: MCL cell lines HBL2, JVM2, Z138C, and Granta; test: MTT cell growth assay, mantle cell lymphoma (MCL) cell lines; assay type: cell-based, human; details: range over the four cell lines, 72 h, read-out: IC50, growth inhibition of MCL cell lines HBL2, JVM2, Z138C, and Granta
Procedure: Mantle cell lymphoma (HBL-2 (Human B-cell lymphoma-derived cell line), Granta, JVM-2, NCEB-1, Z138C) and DoHH2 cell lines were obtained from the British Columbia Cancer Agency. p53 cell lines were obtained from the NCI. Gallium maltolate and gallium nitrate were obtained from Titan Pharmaceuticals Inc. (San Francisco, Calif.) and Genta Incorporated (Berkley Heights, N.J.), respectively. Cell proliferation was measured by MTT assay (Mosmann T. “Rapid colorimetric assay for cellular growth and survival: Application to proliferation and cytotoxicity assays”. J Immunol Methods 1983; 65:55-63, incorporated by reference here in its entirety). Caspase-3 activity was measured by ApoOne assay (Promega, Madison, Wis.). […]
as §2, with “After 72 h of incubation, 10 μL MTT (3-(4,5-dimethlythiazol-2-yl)-2,5-diphenyltetrazolium bromide) was added to each well and the incubation continued for 4 h at 37° C.” left out, “Cell growth was expressed as a percentage of control (cell growth in the absence of additives). Cell proliferation was assessed after 72 h of incubation with gallium maltolate or maltol.” left out

p53 wt TK-6 cells = test: MTT cell growth assay, p53 wt TK-6 cells; assay type: cell-based, human; details: 72 h
Procedure: as §3
as §2, with “After 72 h of incubation, 10 μL MTT (3-(4,5-dimethlythiazol-2-yl)-2,5-diphenyltetrazolium bromide) was added to each well and the incubation continued for 4 h at 37° C.” left out, “Cell growth was expressed as a percentage of control (cell growth in the absence of additives). Cell proliferation was assessed after 72 h of incubation with gallium maltolate or maltol.” left out

p53 null HN-32 cells = test: MTT cell growth assay, p53 null HN-32 cells; assay type: cell-based, human; details: 72 h
Procedure: as §3
as §2, with “After 72 h of incubation, 10 μL MTT (3-(4,5-dimethlythiazol-2-yl)-2,5-diphenyltetrazolium bromide) was added to each well and the incubation continued for 4 h at 37° C.” left out, “Cell growth was expressed as a percentage of control (cell growth in the absence of additives). Cell proliferation was assessed after 72 h of incubation with gallium maltolate or maltol.” left out

p53 mutant WTK-1 cells = test: MTT cell growth assay, p53 mutant WTK-1 cells; assay type: cell-based, human; details: 72 h
Procedure: as §3
as §2, with “After 72 h of incubation, 10 μL MTT (3-(4,5-dimethlythiazol-2-yl)-2,5-diphenyltetrazolium bromide) was added to each well and the incubation continued for 4 h at 37° C.” left out, “Cell growth was expressed as a percentage of control (cell growth in the absence of additives). Cell proliferation was assessed after 72 h of incubation with gallium maltolate or maltol.” left out

HBL-2 cells [3] = test: MTT cell proliferation assay, mantle cell lymphoma HBL-2 cells; assay type: cell-based, human; details: 72 h, FIG. 3
Procedure: Mantle cell lymphoma (HBL-2 (Human B-cell lymphoma-derived cell line), Granta, JVM-2, NCEB-1, Z138C) and DoHH2 cell lines were obtained from the British Columbia Cancer Agency. p53 cell lines were obtained from the NCI. […] (San Francisco, Calif.) and Genta Incorporated (Berkley Heights, N.J.), respectively. Cell proliferation was measured by MTT assay (Mosmann T. “Rapid colorimetric assay for cellular growth and survival: Application to proliferation and cytotoxicity assays”. J Immunol Methods 1983; 65:55-63, incorporated by reference here in its entirety). Caspase-3 activity was measured by ApoOne assay (Promega, Madison, Wis.). Assays for cellular ^59Fe-transferrin uptake and ^125I-transferrin binding were used as previously described in Chitambar, 1997. […] Cells were then solubilized by the addition of 100 μL 0.4 N HCl in isopropanol to each well and the absorbance of each well was read at 570 nm using a spectrophotometer. Cell proliferation was measured after a 72 h incubation period. The effect of the additives on cell proliferation was determined by comparing the absorbance from wells with the additives with the absorbance from wells in which the additives were omitted (decreased absorbance signifies decreased cell proliferation). Cell growth was expressed as a percentage of control (cell growth in the absence of additives).

caspase-3 [4] = test: Caspase-3 activation (apo-One assay) in HBL-2 cells; assay type: cell-based, human; details: for Caspase-3 activity in exposed cells, dose dependence: see FIG. 4
Procedure: as §1
After incubation with these compounds, the cells were analyzed for apoptosis using the commercially available apo-One™ assay that measures caspase-3 activation. Data points are the means and S.E. of an experiment performed in triplicate.

caspase-3 [5] = test: Caspase-3 activity (apo-One assay) in GnR CCRF-CEM cells; assay type: cell-based, human; details: 24 h incubation, FIG. 5D
Procedure: as §1
After the incubation period, caspase-3 activity was measured by apo-One™ assay.

HBL-2 cells [6] = test: Cellular 59Fe-transferrin (iron) uptake by HBL-2 cells; assay type: cell-based, human; details: 24 h, increasing concentrations of GaM, FIG. 7
Procedure: as §1
HBL-2 cells were incubated in complete medium in the presence of increasing concentrations of GaM. Radioiron (^59Fe-transferrin) was added to cells at the start of the incubation. After 24 h, cells were harvested, washed with phosphate buffered saline to remove unincorporated ^59Fe and centrifuged to pellet the cells. ^59Fe radioactivity in the cell pellet was counted in a gamma counter. The results showing that the amount of radioiron taken up by cells decreases with increasing concentrations of GaM are depicted in FIG. 7.

[7] = system: transferrin (Tf) receptor; test: 125I-transferrin binding assay, cell surface transferrin receptor density in HBL-2 cells; assay type: cell-based, human; details: FIG. 8
Procedure: as §1
To determine the mechanism by which GaM acts on cells, cellular transferrin receptor expression was evaluated in HBL-2 cells. The effect of GaM on cellular transferrin receptor expression was determined using a ^125I-transferrin (Tf) binding assay that measures the binding of the ligand Tf to its receptor (TfR). HBL-2 cells were incubated with increasing concentrations of GaM for 24 and 48 h and then analyzed for Tf binding using an established method. The amount of radioactive Tf bound to cellular TfR was calculated using Scatchard analysis.

lymphoma cell lines = test: Annexin V staining of cells exposed to gallium compounds; assay type: cell-based; details: cells exposed to GaN or GaM

Structure (SMILES) | IC50 (CCRF-CEM cells) | Inhibition of CCRF-CEM cell growth (in words) (CCRF-CEM cells) | Proliferation of GnR cells resistant to GaN (in words) ([1]; FIG. 5) | IC50 ([1]; MTT assay, 72 h incubation, read-out: IC50, growth inhibition of GaN-resistant cells) | IC50 [2] | IC50 (p53 wt TK-6 cells) | Growth of p53 wt TK-6 cells (in words) (p53 wt TK-6 cells; FIG. 6) | IC50 (p53 null HN-32 cells) | Growth of p53 null HN-32 cells (in words) (p53 null HN-32 cells; FIG. 6) | IC50 (p53 mutant WTK-1 cells) | Growth of p53 mutant WTK-1 cells (in words) (p53 mutant WTK-1 cells; FIG. 6) | Inhibition of HBL-2 cell proliferation, GaM compared with GaN (in words) (HBL-2 cells [3]) | Caspase-3 activation in HBL-2 cells (caspase-3 [4]; 48 h incubation, similar concentrations of GaM and GaN, FIG. 4) | Caspase-3 activity in exposed cells, dose dependence (caspase-3 [4]) | Caspase-3 activation in GnR cells (caspase-3 [5]) | Amount of radioiron (59Fe) taken up by cells (HBL-2 cells [6]) | Number of TfRs on the cell surface ([7]; 24 h, 25 and 50 μM GaM) | Number of TfRs on the cell surface ([7]; 48 h, 25 μM GaM) | Annexin V staining (lymphoma cell lines)
Cc1occc(=O)c1[O-].Cc1occc(=O)c1[O-].Cc1occc(=O)c1[O-].[Ga+3] [GaM, gallium maltolate] | 29 µM | inhibited | inhibits proliferation | 70 µM | 15 to 30 µM | 18 µM | inhibited to a similar extent | 45 µM | inhibited to a similar extent | 45 µM | inhibited to a similar extent | much lower concentrations of gallium were required to inhibit cell proliferation | activated | dose-dependent increase | activates caspase-3 | decreases | increase the number of TfRs | increases TfR number | increase
O=[N+]([O-])[O-].O=[N+]([O-])[O-].O=[N+]([O-])[O-].[Ga+3] [GaN, gallium nitrate, reference compound] | 103 µM | – | – | – | 45 to 400 µM | – | – | – | – | – | – | – | – | dose-dependent increase | not | – | – | – | increase
Cc1occc(=O)c1O [Maltol, maltol, reference compound] | – | did not inhibit cell growth | – | – | – | – | – | – | – | – | – | – | – | – | – | – | – | – | –
